Test results: PubChem BioAssay AID330 (DTP/NCI, 2004)
“And” between values parts separate entries of the source, which are not always exact repeats. Identical values can stand only once. Inconclusive results and toxic doses are left out. How the source made its calls: active means survival T/C of 150% or more; inactive means T/C below 125% in these data.

Tested on: P388 leukemia ip, CD2F1 mice, survival T/C
Assay: NCI In Vivo Anticancer Drug Screen. Data for tumor model P388 Leukemia (intraperitoneal) in CD2F1 (CDF1) mice
Conditions: endpoint: median survival time, higher = longer survival
Outline: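 Mice carrying the transplanted tumor received test compound or vehicle. Survival was recorded in each group, and the value is the treated-group measurement divided by that of the vehicle-treated control group.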

[1] = dose: 50.0 mg/kg/injection, schedule: Q01DX005 (ip), vehicle: Klucel (hydroxypropylcellulose) (HPC)
[2] = dose: 100.0 mg/kg/injection, schedule: Q01DX005 (ip), vehicle: Klucel (hydroxypropylcellulose) (HPC)
[3] = dose: 200.0 mg/kg/injection, schedule: Q01DX005 (ip), vehicle: Klucel (hydroxypropylcellulose) (HPC)
[4] = dose: 50.0 mg/kg/injection, schedule: Q01DX009 (ip), vehicle: Klucel (hydroxypropylcellulose) (HPC)
[5] = dose: 100.0 mg/kg/injection, schedule: Q01DX009 (ip), vehicle: Klucel (hydroxypropylcellulose) (HPC)
[6] = dose: 200.0 mg/kg/injection, schedule: Q01DX009 (ip), vehicle: Klucel (hydroxypropylcellulose) (HPC)
[7] = dose: 60.0 mg/kg/injection, schedule: Q01DX005 (ip), vehicle: Klucel (hydroxypropylcellulose) (HPC)
[8] = dose: 120.0 mg/kg/injection, schedule: Q01DX005 (ip), vehicle: Klucel (hydroxypropylcellulose) (HPC)
[9] = dose: 240.0 mg/kg/injection, schedule: Q01DX005 (ip), vehicle: Klucel (hydroxypropylcellulose) (HPC)
[10] = dose: 50.0 mg/kg/injection, schedule: Q01DX009 (ip), vehicle: saline with Tween-80
[11] = dose: 50.0 mg/kg/injection, schedule: Q01DX009 (ip), vehicle: saline
[12] = dose: 100.0 mg/kg/injection, schedule: Q01DX009 (ip), vehicle: saline
[13] = dose: 200.0 mg/kg/injection, schedule: Q01DX009 (ip), vehicle: saline
[14] = dose: 6.25 mg/kg/injection, schedule: Q01DX005 (ip), vehicle: Klucel (hydroxypropylcellulose) (HPC)
[15] = dose: 12.5 mg/kg/injection, schedule: Q01DX005 (ip), vehicle: Klucel (hydroxypropylcellulose) (HPC)
[16] = dose: 25.0 mg/kg/injection, schedule: Q01DX005 (ip), vehicle: Klucel (hydroxypropylcellulose) (HPC)

Measured: T/C

[Br][Rh][Br].[NH-]c1nc2c(ccc3ccccc32)s1.[NH-]c1nc2c(ccc3ccccc32)s1.[NH-]c1nc2c(ccc3ccccc32)s1.[NH-]c1nc2c(ccc3ccccc32)s1
inactive: dose: 100.0 mg/kg/injection, schedule: Q04DX003 (ip), vehicle: saline 109 % of control | dose: 200.0 mg/kg/injection, schedule: Q04DX003 (ip), vehicle: saline 103 % of control | dose: 400.0 mg/kg/injection, schedule: Q04DX003 (ip), vehicle: saline 98 % of control

CSC1=NN(C(C)=O)C(c2ccncc2)S1 (configuration not stated)
inactive: [1] 96 % of control | [2] 97 % of control | [3] 92 % of control

COC(=O)C1=NC1c1ccc(C)cc1 (configuration not stated)
inactive: dose: 100.0 mg/kg/injection, schedule: Q01DX001 (ip), vehicle: saline with Tween-80 104 % of control | dose: 200.0 mg/kg/injection, schedule: Q01DX001 (ip), vehicle: saline with Tween-80 110 % of control | dose: 400.0 mg/kg/injection, schedule: Q01DX001 (ip), vehicle: saline with Tween-80 100 % of control

CC1=C(C(=O)O)CCC1(C)C
inactive: dose: 100.0 mg/kg/injection, schedule: Q04DX002 (ip), vehicle: saline with Tween-80 98 % of control | dose: 200.0 mg/kg/injection, schedule: Q04DX002 (ip), vehicle: saline with Tween-80 101 % of control | dose: 400.0 mg/kg/injection, schedule: Q04DX002 (ip), vehicle: saline with Tween-80 104 % of control

C[n+]1cccc(/C=N/O)c1
inactive: dose: 100.0 mg/kg/injection, schedule: Q04DX002 (ip), vehicle: saline 100 % of control | dose: 200.0 mg/kg/injection, schedule: Q04DX002 (ip), vehicle: saline 100 % of control

CC(C)=NNS(=O)(=O)c1ccc(C)cc1
inactive: dose: 12.5 mg/kg/injection, schedule: Q01DX009 (ip), vehicle: Klucel (hydroxypropylcellulose) (HPC) 101 % of control | dose: 25.0 mg/kg/injection, schedule: Q01DX009 (ip), vehicle: Klucel (hydroxypropylcellulose) (HPC) 93 % of control | [4] 95 % of control | [5] 97 % of control | [6] 88 % of control

CC1SCC(=O)N1c1nncs1 (configuration not stated)
inactive: dose: 30.0 mg/kg/injection, schedule: Q01DX005 (ip), vehicle: Klucel (hydroxypropylcellulose) (HPC) 101 % of control and 104 % of control | [7] 102 % of control and 106 % of control | [8] 106 % of control and 123 % of control | [9] 123 % of control
active: dose: 480.0 mg/kg/injection, schedule: Q01DX005 (ip), vehicle: Klucel (hydroxypropylcellulose) (HPC) 162 % of control

CCC1CCCCN1Cc1ccccc1 (configuration not stated)
inactive: [7] 108 % of control | [8] 110 % of control

O=C(O)c1c[nH]c2cc(O)ccc2c1=O
inactive: dose: 12.5 mg/kg/injection, schedule: Q01DX009 (ip), vehicle: saline with Tween-80 98 % of control | dose: 25.0 mg/kg/injection, schedule: Q01DX009 (ip), vehicle: saline with Tween-80 96 % of control | [10] 103 % of control | [11] 103 % of control | [12] 101 % of control | [13] 95 % of control

C=C(Br)C(=NC(C)(C)C)Nc1ccccc1Cl
inactive: [14] 98 % of control | [15] 109 % of control | [16] 111 % of control and 120 % of control and 118 % of control | [1] 118 % of control | [2] 110 % of control

CC(C)CC(C)NC(=O)Nc1ccc(Cc2ccc(NC(=O)NC(C)CC(C)C)cc2)cc1 (configuration not stated)
inactive: [4] 96 % of control | [5] 97 % of control | [6] 93 % of control

CC(=O)c1c(O)c(C)c(O)c2c1OC1=CC(=O)c3c(C)noc3C12C (configuration not stated)
inactive: dose: 12.5 mg/kg/injection, schedule: Q01DX009 (ip), vehicle: gum acacia 102 % of control | dose: 25.0 mg/kg/injection, schedule: Q01DX009 (ip), vehicle: gum acacia 118 % of control | dose: 50.0 mg/kg/injection, schedule: Q01DX009 (ip), vehicle: gum acacia 101 % of control and 112 % of control and 113 % of control | dose: 100.0 mg/kg/injection, schedule: Q01DX009 (ip), vehicle: gum acacia 114 % of control and 118 % of control and 120 % of control | dose: 200.0 mg/kg/injection, schedule: Q01DX009 (ip), vehicle: gum acacia 104 % of control and 105 % of control

O=C(CCSSc1ccccn1)ON1C(=O)CCC1=O
inactive: dose: 100.0 mg/kg/injection, schedule: Q01DX001 (ip), vehicle: saline 102 % of control | dose: 200.0 mg/kg/injection, schedule: Q01DX001 (ip), vehicle: saline 107 % of control | dose: 400.0 mg/kg/injection, schedule: Q01DX001 (ip), vehicle: saline 100 % of control

CN1CC[S][Sn]([CH2][Sn]2([c]3ccccc3)[S]CCN(C)CC[S]2)([c]2ccccc2)[S]CC1
inactive: [1] 99 % of control | [2] 101 % of control | [3] 100 % of control

O=C(CC(=O)C(F)(F)F)c1cccs1.O=C(CC(=O)C(F)(F)F)c1cccs1.O=C(CC(=O)C(F)(F)F)c1cccs1.[Tb]
inactive: [11] 86 % of control | [12] 86 % of control | [13] 89 % of control

O=c1c2ccc(S(=O)(=O)c3ccc4c(=O)n5c6ccccc6nc5c5cccc3c45)c3cccc(c32)c2nc3ccccc3n12
inactive: [7] 86 % of control | [8] 88 % of control | [9] 99 % of control

CC(CNCCN)C[Si](C)(C)C (configuration not stated)
inactive: dose: 6.25 mg/kg/injection, schedule: Q01DX009 (ip), vehicle: saline 95 % of control | dose: 12.5 mg/kg/injection, schedule: Q01DX009 (ip), vehicle: saline 87 % of control | dose: 25.0 mg/kg/injection, schedule: Q01DX009 (ip), vehicle: saline 95 % of control

O=Cc1ccc(C(Cl)(Cl)Cl)cc1
active: dose: 400.0 mg/kg/injection, schedule: Q04DX003 (ip), vehicle: saline with Tween-80 159 % of control
inactive: [10] 123 % of control | dose: 264.0 mg/kg/injection, schedule: Q04DX003 (ip), vehicle: saline with Tween-80 109 % of control

NC(C[P+](=O)O)C(=O)O (configuration not stated)
inactive: dose: 18.75 mg/kg/injection, schedule: Q01DX005 (ip), vehicle: water 103 % of control | dose: 37.5 mg/kg/injection, schedule: Q01DX005 (ip), vehicle: water 111 % of control | dose: 75.0 mg/kg/injection, schedule: Q01DX005 (ip), vehicle: water 91 % of control | dose: 150.0 mg/kg/injection, schedule: Q01DX005 (ip), vehicle: water 87 % of control

C=C(C)C(=NC(C)C)Nc1ccccc1
inactive: [14] 103 % of control and 104 % of control | [15] 107 % of control and 123 % of control and 96 % of control | [16] 99 % of control and 104 % of control and 106 % of control

O=C1C=C(NC(=O)C(F)(F)F)C(=O)c2c1[nH]c(=O)[nH]c2=O
inactive: dose: 6.25 mg/kg/injection, schedule: Q01DX005 (ip), vehicle: DMSO 109 % of control | dose: 12.5 mg/kg/injection, schedule: Q01DX005 (ip), vehicle: DMSO 103 % of control | dose: 25.0 mg/kg/injection, schedule: Q01DX005 (ip), vehicle: DMSO 103 % of control | dose: 50.0 mg/kg/injection, schedule: Q01DX005 (ip), vehicle: DMSO 110 % of control | dose: 50.0 mg/kg/injection, schedule: Q01DX005 (ip), vehicle: other 98 % of control | dose: 100.0 mg/kg/injection, schedule: Q01DX005 (ip), vehicle: other 104 % of control | dose: 200.0 mg/kg/injection, schedule: Q01DX005 (ip), vehicle: other 101 % of control
